These results are taken from patent publication EP4458352A1, “EICOSAPENTAENOIC ACID ESTER DERIVATIVES FOR THE TREATMENT OF OBESITY” (Technische Universität Dresden, priority 2023, dated 2024).

In this assay the test system is NCI-H295R cells. Briefly: Lipidomic analysis (LC-MS/MS) of mitochondrial fractions of NCI-H295R cells treated with SC-26196. It is filed as cell-based, Human. As to conditions: SC-26196 10 µM, 18 h vs DMSO. The procedure:
NCI-H295R cells (obtained from ATCC Cat# CRL-2128) were maintained in DMEM/F12 medium supplemented with 2.5 % Nu-Serum type I (Corning), 1 % Insulin Transferrin Selenium (ITS; Gibco), 50 U/mL penicillin and 50 µg/mL streptomycin. They were treated for 18 h with 10 µM SC-26196 or DMSO. In some experiments, NCI-H295R cells were treated or not for 48 h 66 µM EPA and in the last 24 h they were stimulated or not with forskolin (10 µM; Sigma-Aldrich).
Cells were trypsinized and pelleted by centrifugation (500xg, 5 min, 4 °C). The cells were gently resuspended in homogenization buffer (200 mM mannitol, 50 mM sucrose, 10 mM KCI, […] 25 mM HEPES, pH 7.4, 1 µM aprotinin, 10 µM leupeptin, 20 µM PMSF) and homogenized on ice with 20 strokes of tight Dounce homogenizer. The samples were then centrifuged (800xg, 10 min, 4 °C) to pellet the nuclei. The supernatant was mixed with iodixanol solution (Optiprep, Sigma-Aldrich) to a final concentration of 20 %. The samples were placed at the bottom of a tube and overlaid with 500 µl iodixanol solutions (18 %, 16 %, 14 %, 12 %, 10 %, 5 %) and finally with 500 µl of HBS (50 mM HEPES, 150 mM NaCl, pH 7.4). The samples were centrifuged in Beckman SW60Ti swing-out rotor (45,000 rpm, 5 h, 4 °C). After centrifugation fifteen 280 µl aliquots were collected from top of the tubes.
Fractions 10-12 (SDHB-positive) and 4-5 (HSL-positive) were considered as mitochondrial and lipid droplet fractions, respectively. Protein concentration was measured in the mitochondrial and lipid droplet pools with the BCA Protein Assay Kit (Thermo Fisher) and fractions were analyzed for cholesterol and CE concentrations.
Fractions containing mitochondria were combined and extracted with three volumes of ice-cold chloroform/methanol (10:1, v/v, both containing 0.1 % butylated hydroxytoluene (Merck, ≥99 %)). Samples were incubated on ice for 15 min, before the organic phase was collected after centrifugation (5 min, 5,000 × g). The aqueous phase was re-extracted with two volumes chloroform/methanol as described above. Combined organic phases were dried in vacuo. Methanol (ULC-MS grade, Biosolve B.V.) and chloroform (EMSURE ACS, ISO, Reag. Ph Eur; Supleco) were of highest purity.
Lipid extracts were dissolved in 50 µL 2-propanol (ULC/MS-CC/SFC grade, >99.95 %; Biosolve B.V.) and analyzed by LC-MS/MS. Lipids (2.5 µL loaded in positive mode, 5 µL in negative mode) were separated by reverse phase chromatography (Accucore C30 column; 150 mm × 2.1 mm 2.6 µM 150 Å, Thermo Fisher Scientific) using a Vanquish Horizon UHPLC system (Thermo Fisher Scientific) coupled on-line to a Q Exactive Plus Hybrid Quadrupole Orbitrap mass spectrometer (Thermo Fisher Scientific, Bremen, Germany) equipped with a HESI source. Column was operated at 50 °C and flow rate of 0.3 mL/min. […]

Take `N#CC(CCCN1CCN(/N=C/c2cccnc2)CC1)(c1ccccc1)c1ccccc1` [SC-26196]: the “abundance of PC and PE containing PUFA acyl chains in mitochondrial fractions” value is recorded as “reduced”; the “lipids with saturated or monounsaturated acyl chains in mitochondrial fractions” value was “increased”. Besides, the “mitochondrial lipidome (PCA)” value (n=3) was “reprogramed the mitochondrial lipidome”. Further, the “Cardiolipins in mitochondrial fractions” value (not shown) is recorded as “remained unaffected”.
